Source: ChEMBL document CHEMBL1275437, “Prevalence of serotype 19A Streptococcus pneumoniae among isolates from U.S. children in 2005-2006 and activity of faropenem” (2008)
≈ marks a conversion by molar mass, not a printed value.

What was measured:
Assay type in all cases: functional
Streptococcus pneumoniae [1] = assay: Antibacterial activity against Streptococcus pneumoniae serotype 22 by broth microdilution method
Streptococcus pneumoniae [2] = assay: Antibacterial activity against Streptococcus pneumoniae serotype 3 by broth microdilution method
Streptococcus pneumoniae [3] = assay: Antibacterial activity against Streptococcus pneumoniae serotype 19F by broth microdilution method
Streptococcus pneumoniae [4] = assay: Antibacterial activity against Streptococcus pneumoniae serotype 19F assessed as percent susceptible isolates by broth microdilution method
Streptococcus pneumoniae [5] = assay: Antibacterial activity against Streptococcus pneumoniae serotype 19F assessed as percent resistant isolates by broth microdilution method
Streptococcus pneumoniae [6] = assay: Antibacterial activity against Streptococcus pneumoniae serotype 6A/C assessed as percent susceptible isolates by broth microdilution method
Streptococcus pneumoniae [7] = assay: Antibacterial activity against Streptococcus pneumoniae serotype 23A assessed as percent susceptible isolates by broth microdilution method
Streptococcus pneumoniae [8] = assay: Antibacterial activity against Streptococcus pneumoniae serotype 23A assessed as percent resistant isolates by broth microdilution method
Streptococcus pneumoniae [9] = assay: Antibacterial activity against Streptococcus pneumoniae serotype 22 assessed as percent susceptible isolates by broth microdilution method
Streptococcus pneumoniae [10] = assay: Antibacterial activity against Streptococcus pneumoniae serotype 33 assessed as percent resistant isolates by broth microdilution method
Streptococcus pneumoniae [11] = assay: Antibacterial activity against Streptococcus pneumoniae serotype 6A/C by broth microdilution method
Streptococcus pneumoniae [12] = assay: Antibacterial activity against Streptococcus pneumoniae serotype 19A assessed as percent susceptible isolates by broth microdilution method
Streptococcus pneumoniae [13] = assay: Antibacterial activity against Streptococcus pneumoniae serotype 33 assessed as percent susceptible isolates by broth microdilution method
Streptococcus pneumoniae [14] = assay: Antibacterial activity against Streptococcus pneumoniae serotype 19A assessed as percent resistant isolates by broth microdilution method
Streptococcus pneumoniae [15] = assay: Antibacterial activity against Streptococcus pneumoniae serotype 35B by broth microdilution method
Streptococcus pneumoniae [16] = assay: Antibacterial activity against Streptococcus pneumoniae serotype 15A assessed as percent resistant isolates by broth microdilution method
Streptococcus pneumoniae [17] = assay: Antibacterial activity against Streptococcus pneumoniae serotype 35B assessed as percent resistant isolates by broth microdilution method
Streptococcus pneumoniae [18] = assay: Antibacterial activity against Streptococcus pneumoniae serotype 15A assessed as percent susceptible isolates by broth microdilution method
Streptococcus pneumoniae [19] = assay: Antibacterial activity against Streptococcus pneumoniae serotype 15A by broth microdilution method
Streptococcus pneumoniae [20] = assay: Antibacterial activity against Streptococcus pneumoniae serotype 33 by broth microdilution method
Streptococcus pneumoniae [21] = assay: Antibacterial activity against Streptococcus pneumoniae serotype 23A by broth microdilution method
Streptococcus pneumoniae [22] = assay: Antibacterial activity against Streptococcus pneumoniae serotype 6A/C assessed as percent resistant isolates by broth microdilution method
Streptococcus pneumoniae [23] = assay: Antibacterial activity against Streptococcus pneumoniae serotype 3 assessed as percent susceptible isolates by broth microdilution method
Streptococcus pneumoniae [24] = assay: Antibacterial activity against Streptococcus pneumoniae serotype 35B assessed as percent susceptible isolates by broth microdilution method
Streptococcus pneumoniae [25] = assay: Antibacterial activity against Streptococcus pneumoniae serotype 19A by broth microdilution method
Streptococcus pneumoniae [26] = assay: Antibacterial activity against Streptococcus pneumoniae serotype 3 assessed as percent resistant isolates by broth microdilution method
Streptococcus pneumoniae [27] = assay: Antibacterial activity against Streptococcus pneumoniae serotype 22 assessed as percent resistant isolates by broth microdilution method
[28] = Streptococcus pneumoniae, serotype 19F
[29] = Streptococcus pneumoniae, serotype 19A
[30] = Streptococcus pneumoniae, serotype 15A
[31] = Streptococcus pneumoniae, serotype 35B
[32] = Streptococcus pneumoniae, serotype 6A/C

| SMILES | MIC90 (Streptococcus pneumoniae [1]) [µg/mL] | MIC90 (Streptococcus pneumoniae [2]) [µg/mL] | MIC90 (Streptococcus pneumoniae [3]) [µg/mL] | percent susceptible isolates (Streptococcus pneumoniae [4]) [%] | percent susceptible isolates (Streptococcus pneumoniae [6]) [%] | percent susceptible isolates (Streptococcus pneumoniae [7]) [%] | % resistant isolates (Streptococcus pneumoniae [8]) [%] | % susceptible isolates (Streptococcus pneumoniae [9]) [%] | % resistant isolates (Streptococcus pneumoniae [10]) [%] | MIC90 (Streptococcus pneumoniae [11]) [µg/mL] | percent susceptible isolates (Streptococcus pneumoniae [12]) [%] | % susceptible isolates (Streptococcus pneumoniae [13]) [%] | MIC90 (Streptococcus pneumoniae [15]) [µg/mL] | percent susceptible isolates (Streptococcus pneumoniae [18]) [%] | MIC90 (Streptococcus pneumoniae [19]) [µg/mL] | MIC90 (Streptococcus pneumoniae [21]) [µg/mL] | % susceptible isolates (Streptococcus pneumoniae [23]) [%] | MIC90 (Streptococcus pneumoniae [25]) [µg/mL] | % resistant isolates (Streptococcus pneumoniae [27]) [%] | % resistant isolates (Streptococcus pneumoniae [26]) [%] | also measured |
| --- | --- | --- | --- | --- | --- | --- | --- | --- | --- | --- | --- | --- | --- | --- | --- | --- | --- | --- | --- | --- | --- |
| CC[C@H]1OC(=O)[C@H](C)[C@@H](O[C@H]2C[C@@](C)(OC)[C@@H](O)[C@H](C)O2)[C@H](C)[C@@H](O[C@@H]2O[C@H](C)C[C@H](N(C)C)[C@H]2O)[C@](C)(O)C[C@@H](C)CN(C)[C@H](C)[C@@H](O)[C@]1(C)O [AZITHROMYCIN] | ≤ 0.12 | 0.5 (≈ 0.668 µM) | > 16 | 29 | 31 | 79 | 0 | 100 | 0 | 8 (≈ 10.7 µM) | 36 | 42 | 16 (≈ 21.4 µM) | 7 | > 16 | > 16 | 93 | > 16 | 0 |  | % resistant isolates (Streptococcus pneumoniae [5]; [28]): 71%; % resistant isolates (Streptococcus pneumoniae [14]; [29]): 64%; % resistant isolates (Streptococcus pneumoniae [16]; [30]): 93%; % resistant isolates (Streptococcus pneumoniae [17]; [31]): 27%; MIC90 (Streptococcus pneumoniae [20]): 16 µg/mL (≈ 21.4 µM); % resistant isolates (Streptococcus pneumoniae [22]; [32]): 69%; % susceptible isolates (Streptococcus pneumoniae [24]; [31]): 73%; % resistant isolates (Streptococcus pneumoniae [26]; Streptococcus pneumoniae, serotype 3): 4% |
| C=CC1=C(C(=O)O)N2C(=O)[C@@H](NC(=O)/C(=N\O)c3csc(N)n3)[C@H]2SC1 [CEFDINIR] | 0.12 (≈ 0.303 µM) | 0.12 (≈ 0.303 µM) | > 8 | 33 | 59 | 93 | 0 | 100 | 0 | 2 (≈ 5.06 µM) | 46 | 100 | 4 (≈ 10.1 µM) | 72 | 1 (≈ 2.53 µM) | 0.5 (≈ 1.26 µM) | 100 | > 8 | 0 | 0 | % resistant isolates (Streptococcus pneumoniae [5]; [28]): 67%; % resistant isolates (Streptococcus pneumoniae [14]; [29]): 53%; % resistant isolates (Streptococcus pneumoniae [16]; [30]): 7%; % resistant isolates (Streptococcus pneumoniae [17]; [31]): 100%; MIC90 (Streptococcus pneumoniae [20]): 0.12 µg/mL (≈ 0.303 µM); % resistant isolates (Streptococcus pneumoniae [22]; [32]): 15%; % susceptible isolates (Streptococcus pneumoniae [24]): 0% |
| CO/N=C(\C(=O)N[C@@H]1C(=O)N2C(C(=O)OC(C)OC(C)=O)=C(COC(N)=O)CS[C@H]12)c1ccco1 (stereo not given in full) [CEFUROXIME AXETIL] | ≤ 0.5 | ≤ 0.5 | 32 (≈ 62.7 µM) | 33 | 64 | 93 | 0 | 100 | 0 | 4 (≈ 7.84 µM) | 46 | 100 | 4 (≈ 7.84 µM) | 72 | 4 (≈ 7.84 µM) | 1 (≈ 1.96 µM) | 100 | 16 (≈ 31.3 µM) | 0 | 0 | % resistant isolates (Streptococcus pneumoniae [5]; [28]): 67%; % resistant isolates (Streptococcus pneumoniae [14]; [29]): 52%; % resistant isolates (Streptococcus pneumoniae [16]; [30]): 21%; % resistant isolates (Streptococcus pneumoniae [17]; [31]): 100%; MIC90 (Streptococcus pneumoniae [20]): ≤ 0.5 µg/mL; % resistant isolates (Streptococcus pneumoniae [22]; [32]): 15%; % susceptible isolates (Streptococcus pneumoniae [24]): 0% |
| C[C@H]1COc2c(N3CCN(C)CC3)c(F)cc3c(=O)c(C(=O)O)cn1c23.C[C@H]1COc2c(N3CCN(C)CC3)c(F)cc3c(=O)c(C(=O)O)cn1c23.O [LEVOFLOXACIN] | 1 | 2 | 1 | 100 | 100 | 100 | 0 | 100 | 0 | 1 | 100 | 1 | 1 | 100 | 1 | 1 | 97 | 1 | 0 | 0 | % resistant isolates (Streptococcus pneumoniae [5]): 0%; % resistant isolates (Streptococcus pneumoniae [14]): 0%; % resistant isolates (Streptococcus pneumoniae [16]): 0%; % resistant isolates (Streptococcus pneumoniae [17]): 0%; % resistant isolates (Streptococcus pneumoniae [22]): 0%; % susceptible isolates (Streptococcus pneumoniae [24]; [31]): 100% |
| CC1(C)S[C@@H]2[C@H](NC(=O)Cc3ccccc3)C(=O)N2[C@H]1C(=O)O [PENICILLIN G] | ≤ 0.03 | ≤ 0.03 | > 4 | 33 | 23 | 57 | 0 | 100 | 0 | 1 (≈ 2.99 µM) | 13 | 92 | 2 (≈ 5.98 µM) | 7 | 0.5 (≈ 1.5 µM) | 0.5 (≈ 1.5 µM) | 100 | 4 (≈ 12 µM) | 0 | 0 | % resistant isolates (Streptococcus pneumoniae [5]; [28]): 67%; % resistant isolates (Streptococcus pneumoniae [14]; [29]): 50%; % resistant isolates (Streptococcus pneumoniae [16]): 0%; % resistant isolates (Streptococcus pneumoniae [17]; [31]): 100%; MIC90 (Streptococcus pneumoniae [20]): ≤ 0.03 µg/mL; % resistant isolates (Streptococcus pneumoniae [22]; [32]): 8%; % susceptible isolates (Streptococcus pneumoniae [24]): 0% |
| CC[C@H]1OC(=O)[C@H](C)C(=O)[C@H](C)[C@@H](O[C@@H]2O[C@H](C)C[C@H](N(C)C)[C@H]2O)[C@](C)(OC)C[C@@H](C)C(=O)[C@H](C)[C@H]2N(CCCCn3cnc(-c4cccnc4)c3)C(=O)O[C@]12C [TELITHROMYCIN] | ≤ 0.12 | ≤ 0.12 | 1 (≈ 1.23 µM) | 100 | 100 | 100 | 0 | 100 | 0 | 0.25 (≈ 0.308 µM) | 99 | 0.25 | 0.5 (≈ 0.616 µM) | 100 | ≤ 0.12 | ≤ 0.12 | 100 | 1 (≈ 1.23 µM) | 0 | 0 | % resistant isolates (Streptococcus pneumoniae [5]): 0%; % resistant isolates (Streptococcus pneumoniae [14]): 0%; % resistant isolates (Streptococcus pneumoniae [16]): 0%; % resistant isolates (Streptococcus pneumoniae [17]): 0%; % resistant isolates (Streptococcus pneumoniae [22]): 0%; % susceptible isolates (Streptococcus pneumoniae [24]; [31]): 100% |
